{
  "source": "paper PMC4779956",
  "about": "(Journal of medicinal chemistry, 2015)",
  "key": {"ERα [1]": {"target": "T1, ERα (Homo sapiens, UniProt P03372)", "T1 sequence (P03372 1-595)": "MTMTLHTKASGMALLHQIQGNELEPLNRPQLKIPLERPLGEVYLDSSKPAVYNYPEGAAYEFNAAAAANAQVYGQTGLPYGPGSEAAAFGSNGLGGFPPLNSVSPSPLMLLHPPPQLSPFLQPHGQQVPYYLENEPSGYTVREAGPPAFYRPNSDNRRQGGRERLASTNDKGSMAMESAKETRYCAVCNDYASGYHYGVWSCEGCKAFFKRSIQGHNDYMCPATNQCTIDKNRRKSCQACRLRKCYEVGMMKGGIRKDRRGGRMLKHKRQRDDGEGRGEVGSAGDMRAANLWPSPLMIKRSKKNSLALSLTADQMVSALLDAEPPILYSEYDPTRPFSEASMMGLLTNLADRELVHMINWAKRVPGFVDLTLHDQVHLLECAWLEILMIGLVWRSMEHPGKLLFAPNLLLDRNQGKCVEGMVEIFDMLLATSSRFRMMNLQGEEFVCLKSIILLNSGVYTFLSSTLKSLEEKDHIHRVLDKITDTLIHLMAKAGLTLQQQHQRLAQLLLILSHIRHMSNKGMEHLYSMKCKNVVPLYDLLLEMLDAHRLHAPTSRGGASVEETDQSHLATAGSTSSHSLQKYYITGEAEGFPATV", "test": "ERE-luciferase reporter assay", "format": "cell-based", "conditions": "for Efficacy (% E2): MCF-7:ws8 cells, normalized to Ctrl (0%) and E2 1 nM (100%)"}, "MCF-7:5C cells": {"system": "MCF-7:5C cells", "test": "MCF-7:5C cell viability assay", "format": "cell-based, human"}, "ERα [2]": {"target": "T1, ERα", "test": "Antagonism of E2-induced ERE-luciferase activation", "format": "cell-based", "conditions": "MCF-7:ws8, in presence of 0.1 nM E2, ShERPA 100-500 nM, 18 h"}, "ERα-LBD/SRC3 complex [3]": {"target": "T2, ERα-LBD/SRC3 complex (Homo sapiens, UniProt P03372)", "T2 sequence (P03372 311-547 limits assumed)": "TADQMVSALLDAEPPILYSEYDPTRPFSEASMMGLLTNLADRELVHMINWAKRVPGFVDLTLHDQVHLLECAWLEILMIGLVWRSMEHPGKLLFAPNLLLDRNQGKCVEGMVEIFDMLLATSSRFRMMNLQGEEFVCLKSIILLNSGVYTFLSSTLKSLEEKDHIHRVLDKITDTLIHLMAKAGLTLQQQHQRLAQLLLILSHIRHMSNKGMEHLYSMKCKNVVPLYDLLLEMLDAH", "T2 sequence (Q9Y6Q9 627-829 partner limits assumed)": "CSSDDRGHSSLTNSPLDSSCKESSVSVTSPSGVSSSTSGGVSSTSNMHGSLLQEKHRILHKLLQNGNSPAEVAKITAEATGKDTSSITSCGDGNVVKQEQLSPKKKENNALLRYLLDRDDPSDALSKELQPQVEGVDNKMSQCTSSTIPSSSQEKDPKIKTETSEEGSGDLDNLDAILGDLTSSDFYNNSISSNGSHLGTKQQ", "test": "TR-FRET SRC3 titration", "format": "biochemical", "conditions": "20 μM ligand"}, "ERα-LBD/SRC3 complex [4]": {"target": "T2, ERα-LBD/SRC3 complex", "test": "TR-FRET ligand titration in presence of 10 nM E2", "format": "biochemical", "conditions": "in presence of 10 nM E2, 100 nM SRC3"}, "T47D:A18/PKCα tumors [5]": {"system": "T47D:A18/PKCα tumors", "test": "T47D:A18/PKCα tamoxifen-resistant xenograft", "format": "in vivo, mice", "conditions": "100 mg/kg oral gavage daily, within two weeks"}, "[6]": {"test": "Uterine weight in xenograft study", "format": "in vivo, mice", "conditions": "T47D:A18/PKCα xenograft study, 100 mg/kg oral daily"}, "T47D:A18-TAM1": {"system": "T47D:A18-TAM1", "conditions": "T47D:A18-TAM1 model; cited from earlier work"}, "T47D:A18/PKCα tumors [7]": {"system": "T47D:A18/PKCα tumors", "conditions": "T47D:A18/PKCα model; cited from earlier work"}, "[8]": {"conditions": "T47D:A18/PKCα xenograft study; cited from earlier work"}},
  "note": "pEC50: −log10 of the molar value.",
  "data": [
    {"compound": "Cc1ccc(C(=O)c2c(-c3ccc(O)cc3)sc3cc(O)ccc23)cc1", "note": "[Compound 14a]", "values": [
      {"measurement": "Efficacy (% E2)", "setting": "ERα [1]", "value": 100, "unit": "% E2"}
    ]},
    {"compound": "O=C(c1ccc(C(F)(F)F)cc1)c1c(-c2ccc(F)cc2)sc2cc(O)ccc12", "note": "[Compound 14b, (2-(4-fluorophenyl)-6-hydroxybenzo[b]thiophen-3-yl)(4-(trifluoromethyl)phenyl)methanone]", "values": [
      {"measurement": "Efficacy (% E2)", "setting": "ERα [1]", "value": 100, "unit": "% E2"}
    ]},
    {"compound": "O=C(c1ccc(C(F)(F)F)cc1)c1c(-c2ccc(Cl)cc2)sc2cc(O)ccc12", "note": "[Compound 14c, (2-(4-chlorophenyl)-6-hydroxybenzo[b]thiophen-3-yl)(4-(trifluoromethyl)phenyl)methanone]", "values": [
      {"measurement": "Efficacy (% E2)", "setting": "ERα [1]", "value": 100, "unit": "% E2"}
    ]},
    {"compound": "Oc1ccc(Oc2c(-c3ccc(F)cc3)sc3cc(O)ccc23)cc1", "note": "[Compound 19, 2-(4-fluorophenyl)-3-(4-hydroxyphenoxy)benzo[b]thiophen-6-ol]", "values": [
      {"measurement": "Efficacy (% E2)", "setting": "ERα [1]", "value": 100, "unit": "% E2"}
    ]},
    {"compound": "CS(=O)(=O)c1ccc(C(=O)c2sc3cc(O)ccc3c2-c2ccc(F)cc2)cc1", "note": "[Compound 21a, (3-(4-fluorophenyl)-6-hydroxybenzo[b]thiophen-2-yl)(4-(methylsulfonyl)phenyl)methanone]", "values": [
      {"measurement": "Efficacy (% E2)", "setting": "ERα [1]", "value": 100, "unit": "% E2"}
    ]},
    {"compound": "O=C(c1ccc(O)cc1)c1sc2cc(O)ccc2c1-c1ccc(F)cc1", "note": "[Compound 21b, (3-(4-fluorophenyl)-6-hydroxybenzo[b]thiophen-2-yl)(4-hydroxyphenyl)methanone]", "values": [
      {"measurement": "Efficacy (% E2)", "setting": "ERα [1]", "value": 100, "unit": "% E2"}
    ]},
    {"compound": "O=C(c1sc2cc(O)ccc2c1-c1ccc(F)cc1)C1CCCCC1", "note": "[Compound 21g, Cyclohexyl(3-(4-fluorophenyl)-6-hydroxybenzo[b]thiophen-2-yl)methanone]", "values": [
      {"measurement": "Inhibition of cell growth relative to E2 %", "setting": "MCF-7:5C cells; 10 nM, 9 day, control 0 %, E2 100 %, 0.01 µM", "value": 100, "unit": "%"},
      {"measurement": "Efficacy (% E2)", "setting": "ERα [1]", "value": 100, "unit": "% E2"}
    ]},
    {"compound": "C#Cc1ccc(C(=O)c2sc3cc(O)ccc3c2-c2ccc(F)cc2)cc1", "note": "[Compound 23, (4-ethynylphenyl)(3-(4-fluorophenyl)-6-hydroxybenzo[b]thiophen-2-yl)methanone]", "values": [
      {"measurement": "Antagonism of E2 induced ERE activation", "setting": "ERα [2]", "value": "dose dependent reduction in E2 luciferase activity"},
      {"measurement": "Maximal FRET signal relative to E2-liganded ERα-LBD/SRC3 complex", "setting": "ERα-LBD/SRC3 complex [3]", "value": "less than 50%"},
      {"measurement": "Effect on FRET signal on ligand titration", "setting": "ERα-LBD/SRC3 complex [4]", "value": "reduced FRET signal"},
      {"measurement": "Tumor size versus control tumors", "setting": "T47D:A18/PKCα tumors [5]", "value": "half the size of control tumors"},
      {"measurement": "pEC50", "setting": "ERα [1]", "value": 8.30},
      {"measurement": "Efficacy (% E2)", "setting": "ERα [1]", "value": 65, "unit": "% E2"}
    ]},
    {"compound": "O=C(c1ccc(C(F)(F)F)cc1)c1sc2cc(O)ccc2c1-c1ccc(F)cc1", "note": "[Compound 26a, (3-(4-fluorophenyl)-6-hydroxybenzo[b]thiophen-2-yl)(4-(trifluoromethyl)phenyl)methanone]", "values": [
      {"measurement": "Tumor size versus control tumors", "setting": "T47D:A18/PKCα tumors [5]", "value": "half the size of control tumors"},
      {"measurement": "Efficacy (% E2)", "setting": "ERα [1]", "value": 85, "unit": "% E2"},
      {"measurement": "Uterine weight versus vehicle control", "setting": "[6]", "value": "no significant increase in uterine weight compared to vehicle control mice"}
    ]},
    {"compound": "N#Cc1ccc(C(=O)c2sc3cc(O)ccc3c2-c2ccc(F)cc2)cc1", "note": "[Compound 26b, 4-(3-(4-fluorophenyl)-6-hydroxybenzo[b]thiophene-2-carbonyl)benzonitrile]", "values": [
      {"measurement": "Efficacy (% E2)", "setting": "ERα [1]", "value": 100, "unit": "% E2"}
    ]},
    {"compound": "Oc1ccc(Oc2sc3cc(O)ccc3c2-c2ccc(F)cc2)cc1", "note": "[Compound 30a, 3-(4-fluorophenyl)-2-(4-hydroxyphenoxy)benzo[b]thiophen-6-ol]", "values": [
      {"measurement": "Antagonism of E2 induced ERE activation", "setting": "ERα [2]", "value": "dose dependent reduction in E2 luciferase activity"},
      {"measurement": "Xenograft tumor regression", "setting": "T47D:A18-TAM1", "value": "dramatic regression"},
      {"measurement": "Maximal FRET signal relative to E2-liganded ERα-LBD/SRC3 complex", "setting": "ERα-LBD/SRC3 complex [3]", "value": "less than 50%"},
      {"measurement": "Effect on FRET signal on ligand titration", "setting": "ERα-LBD/SRC3 complex [4]", "value": "reduced FRET signal"},
      {"measurement": "Xenograft tumor regression", "setting": "T47D:A18/PKCα tumors [7]", "value": "dramatic regression"},
      {"measurement": "Efficacy (% E2)", "setting": "ERα [1]", "value": 60, "unit": "% E2"},
      {"measurement": "Uterine weight", "setting": "[8]", "value": "not accompanied by a significant increase in uterine weight"}
    ]},
    {"compound": "Oc1ccc2c(-c3ccc(F)cc3)c(Oc3ccc(Cl)cc3)sc2c1", "note": "[Compound 30b, 2-(4-chlorophenoxy)-3-(4-fluorophenyl)benzo[b]thiophen-6-ol]", "values": [
      {"measurement": "Antagonism of E2 induced ERE activation", "setting": "ERα [2]", "value": "dose dependent reduction in E2 luciferase activity"},
      {"measurement": "Efficacy (% E2)", "setting": "ERα [1]", "value": 70, "unit": "% E2"}
    ]},
    {"compound": "Oc1ccc2c(-c3ccc(F)cc3)c(Oc3ccc(F)cc3)sc2c1", "note": "[Compound 30c, 2-(4-fluorophenoxy)-3-(4-fluorophenyl)benzo[b]thiophen-6-ol]", "values": [
      {"measurement": "Efficacy (% E2)", "setting": "ERα [1]", "value": 100, "unit": "% E2"}
    ]},
    {"compound": "Oc1ccc2c(-c3ccc(F)cc3)c(Oc3ccc(F)c(F)c3)sc2c1", "note": "[Compound 30d, 2-(3,4-difluorophenoxy)-3-(4-fluorophenyl)benzo[b]thiophen-6-ol]", "values": [
      {"measurement": "Efficacy (% E2)", "setting": "ERα [1]", "value": 100, "unit": "% E2"}
    ]},
    {"compound": "C[C@]12CC[C@@H]3c4ccc(O)cc4CC[C@H]3[C@@H]1CC[C@@H]2O", "note": "[Compound E2, estradiol, reference compound]", "values": [
      {"measurement": "Reduction of cell viability compared to vehicle control", "setting": "MCF-7:5C cells; 9 days", "value": "approximately 60%"}
    ]}
  ]
}
